Legend:
[1] = molecular target: Mitogen-activated protein kinase 14 (Homo sapiens) (UniProt Q16539); assay: MAPK14 SGC Tm panel (DSF); conditions: Compound concentration 20.0 uM
[2] = molecular target: Zinc finger and BTB domain-containing protein 14 (Homo sapiens) (UniProt O43829); conditions: SUD4, Compound concentration 1.0 uM
[3] = molecular target: Zinc finger and BTB domain-containing protein 14 (Homo sapiens) (UniProt O43829); conditions: SUD4, Compound concentration 1.0 uM; remark: listed apart in the source
Adenosine receptor A1 = Adenosine receptor A1 (Homo sapiens, UniProt P30542); assay: (§1) GPCRScan assay: inhibition of A1; parameters: radioligand conc. used [nm] 5.0, parental cells HEKT
Adenosine receptor A1, sequence (P30542 whole entry): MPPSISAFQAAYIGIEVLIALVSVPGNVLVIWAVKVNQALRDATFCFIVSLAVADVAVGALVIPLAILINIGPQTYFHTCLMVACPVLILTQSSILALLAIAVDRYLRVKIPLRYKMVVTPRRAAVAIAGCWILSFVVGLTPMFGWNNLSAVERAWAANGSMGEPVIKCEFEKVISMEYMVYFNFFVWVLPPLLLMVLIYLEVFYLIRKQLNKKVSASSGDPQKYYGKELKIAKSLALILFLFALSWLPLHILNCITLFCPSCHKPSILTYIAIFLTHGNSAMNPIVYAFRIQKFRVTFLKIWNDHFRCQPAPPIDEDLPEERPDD

[4] = molecular target: Adenosine receptor A1 (Homo sapiens) (UniProt P30542); assay: as §1; parameters: radioligand conc. used [nm] 5.0, parental cells HEKT; conditions: Compound concentration 10.0 uM
Adenosine receptor A1 (Homo sapiens), sequence (P30542 whole entry): as above

[5] = molecular target: Fibroblast growth factor receptor 1 (Homo sapiens) (UniProt P11362); assay: FGFR1 SGC Tm panel (DSF); conditions: Compound concentration 20.0 uM
[6] = molecular target: Zinc finger and BTB domain-containing protein 21 (Homo sapiens) (UniProt Q9ULJ3); conditions: SUD4, Compound concentration 1.0 uM
[7] = molecular target: Sodium-dependent dopamine transporter (Homo sapiens, UniProt Q01959); conditions: Compound concentration 10.0 uM
Sodium-dependent dopamine transporter, sequence (Q01959 whole entry): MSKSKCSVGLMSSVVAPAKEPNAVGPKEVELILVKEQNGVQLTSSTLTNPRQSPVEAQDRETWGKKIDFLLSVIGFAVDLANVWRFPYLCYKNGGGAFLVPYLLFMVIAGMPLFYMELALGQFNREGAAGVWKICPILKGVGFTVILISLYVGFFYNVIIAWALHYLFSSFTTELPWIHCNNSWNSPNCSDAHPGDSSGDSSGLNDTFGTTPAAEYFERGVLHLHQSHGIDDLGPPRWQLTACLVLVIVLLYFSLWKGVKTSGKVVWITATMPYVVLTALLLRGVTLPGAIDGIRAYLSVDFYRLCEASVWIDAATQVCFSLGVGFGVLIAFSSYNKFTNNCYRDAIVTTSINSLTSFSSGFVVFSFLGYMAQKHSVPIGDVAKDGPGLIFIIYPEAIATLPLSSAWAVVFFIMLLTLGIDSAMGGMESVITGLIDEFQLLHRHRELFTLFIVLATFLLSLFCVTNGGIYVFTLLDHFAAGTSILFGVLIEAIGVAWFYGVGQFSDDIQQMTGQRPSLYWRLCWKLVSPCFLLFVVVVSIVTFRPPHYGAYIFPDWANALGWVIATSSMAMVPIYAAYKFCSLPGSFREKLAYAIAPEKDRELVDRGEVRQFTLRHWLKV

Myoneurin (Homo sapiens) = Myoneurin (Homo sapiens) (UniProt Q9NPC7); conditions: SUD4, Compound concentration 1.0 uM
[8] = molecular target: Serine/threonine-protein kinase PAK 4 (Homo sapiens) (UniProt O96013); assay: PAK4 SGC Tm panel (DSF); conditions: Compound concentration 20.0 uM
[9] = molecular target: Dual specificity mitogen-activated protein kinase kinase 7 (Homo sapiens) (UniProt O14733); assay: MAP2K7 SGC Tm panel (DSF); conditions: Compound concentration 20.0 uM
Dual specificity mitogen-activated protein kinase kinase 7 (Homo sapiens), sequence (O14733 whole entry): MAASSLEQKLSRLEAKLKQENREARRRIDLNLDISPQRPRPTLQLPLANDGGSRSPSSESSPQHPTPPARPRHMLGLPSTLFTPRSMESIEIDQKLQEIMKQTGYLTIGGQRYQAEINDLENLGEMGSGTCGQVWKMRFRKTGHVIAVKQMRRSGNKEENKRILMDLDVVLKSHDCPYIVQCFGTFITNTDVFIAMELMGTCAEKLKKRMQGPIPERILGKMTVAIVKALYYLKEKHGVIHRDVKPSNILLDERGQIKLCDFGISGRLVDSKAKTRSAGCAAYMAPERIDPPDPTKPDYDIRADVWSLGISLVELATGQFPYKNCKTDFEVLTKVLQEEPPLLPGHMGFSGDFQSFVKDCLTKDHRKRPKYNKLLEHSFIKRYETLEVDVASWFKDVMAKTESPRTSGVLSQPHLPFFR

[10] = molecular target: Serine/threonine-protein kinase Nek1 (Homo sapiens) (UniProt Q96PY6); assay: NEK1 SGC Tm panel (DSF); conditions: Compound concentration 20.0 uM
Serine/threonine-protein kinase Nek1 (Homo sapiens), sequence (Q96PY6 whole entry): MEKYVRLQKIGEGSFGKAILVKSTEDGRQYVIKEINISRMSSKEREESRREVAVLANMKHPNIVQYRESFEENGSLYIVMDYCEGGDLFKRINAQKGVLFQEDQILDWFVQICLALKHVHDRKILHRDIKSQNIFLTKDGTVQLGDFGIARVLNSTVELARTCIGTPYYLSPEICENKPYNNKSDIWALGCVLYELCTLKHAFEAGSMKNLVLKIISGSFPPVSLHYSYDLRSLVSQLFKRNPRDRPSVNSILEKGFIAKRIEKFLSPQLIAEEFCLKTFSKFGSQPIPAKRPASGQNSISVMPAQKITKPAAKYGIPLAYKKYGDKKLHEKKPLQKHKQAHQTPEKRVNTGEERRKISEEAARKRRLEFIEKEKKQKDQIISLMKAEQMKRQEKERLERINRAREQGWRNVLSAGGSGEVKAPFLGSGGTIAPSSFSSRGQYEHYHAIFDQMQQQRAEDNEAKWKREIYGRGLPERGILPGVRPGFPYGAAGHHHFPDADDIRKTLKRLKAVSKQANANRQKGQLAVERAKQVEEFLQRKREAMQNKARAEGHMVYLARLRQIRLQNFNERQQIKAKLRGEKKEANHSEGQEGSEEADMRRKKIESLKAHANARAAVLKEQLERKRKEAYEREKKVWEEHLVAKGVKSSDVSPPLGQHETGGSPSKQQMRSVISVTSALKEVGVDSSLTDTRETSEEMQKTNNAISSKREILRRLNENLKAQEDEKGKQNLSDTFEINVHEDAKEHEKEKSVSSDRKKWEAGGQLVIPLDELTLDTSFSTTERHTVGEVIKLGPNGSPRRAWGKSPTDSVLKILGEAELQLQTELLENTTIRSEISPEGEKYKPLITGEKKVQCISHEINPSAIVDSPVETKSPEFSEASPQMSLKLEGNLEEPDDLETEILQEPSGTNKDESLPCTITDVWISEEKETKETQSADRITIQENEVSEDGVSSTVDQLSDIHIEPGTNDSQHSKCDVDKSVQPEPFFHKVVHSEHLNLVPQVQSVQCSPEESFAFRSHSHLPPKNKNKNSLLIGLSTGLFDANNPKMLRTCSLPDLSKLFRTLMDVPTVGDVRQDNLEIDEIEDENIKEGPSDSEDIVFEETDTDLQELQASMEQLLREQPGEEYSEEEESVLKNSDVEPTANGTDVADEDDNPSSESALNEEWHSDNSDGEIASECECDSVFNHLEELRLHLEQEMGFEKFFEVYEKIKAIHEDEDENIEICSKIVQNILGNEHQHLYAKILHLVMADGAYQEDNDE

[11] = molecular target: Ephrin type-A receptor 7 (Homo sapiens) (UniProt Q15375); assay: EPHA7 SGC Tm panel (DSF); conditions: Compound concentration 20.0 uM
[12] = molecular target: T1, Zinc finger protein 131 (Homo sapiens) (UniProt P52739); conditions: OCI-Ly1, Compound concentration 1.0 uM
T1 sequence (whole entry): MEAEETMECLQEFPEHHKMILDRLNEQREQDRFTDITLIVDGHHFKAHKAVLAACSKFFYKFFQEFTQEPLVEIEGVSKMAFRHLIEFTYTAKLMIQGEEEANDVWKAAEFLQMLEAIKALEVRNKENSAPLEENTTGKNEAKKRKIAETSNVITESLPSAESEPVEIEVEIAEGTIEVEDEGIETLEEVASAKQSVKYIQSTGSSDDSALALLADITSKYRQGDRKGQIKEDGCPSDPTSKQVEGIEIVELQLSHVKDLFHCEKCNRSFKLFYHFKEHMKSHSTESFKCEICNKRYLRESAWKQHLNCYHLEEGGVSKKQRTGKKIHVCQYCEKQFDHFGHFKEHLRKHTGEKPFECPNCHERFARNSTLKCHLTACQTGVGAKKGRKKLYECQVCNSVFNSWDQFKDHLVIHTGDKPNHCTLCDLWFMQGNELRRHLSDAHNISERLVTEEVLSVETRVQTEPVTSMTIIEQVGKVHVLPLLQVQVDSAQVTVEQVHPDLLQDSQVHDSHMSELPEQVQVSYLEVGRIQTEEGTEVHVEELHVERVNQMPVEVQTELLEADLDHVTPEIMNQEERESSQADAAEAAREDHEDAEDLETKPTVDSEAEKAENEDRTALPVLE

[13] = molecular target: T2, Zinc finger and BTB domain-containing protein 24 (Homo sapiens) (UniProt O43167); conditions: OCI-Ly1, Compound concentration 1.0 uM
T2 sequence (whole entry): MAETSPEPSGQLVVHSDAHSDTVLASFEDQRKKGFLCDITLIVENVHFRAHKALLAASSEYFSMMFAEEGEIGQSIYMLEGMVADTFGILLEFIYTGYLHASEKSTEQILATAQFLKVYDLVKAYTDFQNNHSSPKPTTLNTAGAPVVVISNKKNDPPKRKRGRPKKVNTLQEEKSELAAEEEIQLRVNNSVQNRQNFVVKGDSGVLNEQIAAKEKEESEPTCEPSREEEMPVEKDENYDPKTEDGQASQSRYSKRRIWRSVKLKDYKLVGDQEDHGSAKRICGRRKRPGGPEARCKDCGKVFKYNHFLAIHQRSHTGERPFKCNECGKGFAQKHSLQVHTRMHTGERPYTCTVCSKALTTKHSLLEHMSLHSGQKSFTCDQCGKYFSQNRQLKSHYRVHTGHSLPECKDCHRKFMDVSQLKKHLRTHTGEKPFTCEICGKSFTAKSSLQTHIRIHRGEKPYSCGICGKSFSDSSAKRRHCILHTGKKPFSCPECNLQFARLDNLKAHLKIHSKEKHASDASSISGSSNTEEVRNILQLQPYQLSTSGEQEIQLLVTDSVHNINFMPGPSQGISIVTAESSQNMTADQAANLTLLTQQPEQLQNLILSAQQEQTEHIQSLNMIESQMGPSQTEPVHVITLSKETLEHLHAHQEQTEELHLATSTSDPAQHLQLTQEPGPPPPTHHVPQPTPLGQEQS

[14] = molecular target: Ephrin type-A receptor 5 (Homo sapiens) (UniProt P54756); assay: EPHA5 SGC Tm panel (DSF); conditions: Compound concentration 20.0 uM
Ephrin type-A receptor 5 (Homo sapiens), sequence (P54756 whole entry, the tested form may be a part): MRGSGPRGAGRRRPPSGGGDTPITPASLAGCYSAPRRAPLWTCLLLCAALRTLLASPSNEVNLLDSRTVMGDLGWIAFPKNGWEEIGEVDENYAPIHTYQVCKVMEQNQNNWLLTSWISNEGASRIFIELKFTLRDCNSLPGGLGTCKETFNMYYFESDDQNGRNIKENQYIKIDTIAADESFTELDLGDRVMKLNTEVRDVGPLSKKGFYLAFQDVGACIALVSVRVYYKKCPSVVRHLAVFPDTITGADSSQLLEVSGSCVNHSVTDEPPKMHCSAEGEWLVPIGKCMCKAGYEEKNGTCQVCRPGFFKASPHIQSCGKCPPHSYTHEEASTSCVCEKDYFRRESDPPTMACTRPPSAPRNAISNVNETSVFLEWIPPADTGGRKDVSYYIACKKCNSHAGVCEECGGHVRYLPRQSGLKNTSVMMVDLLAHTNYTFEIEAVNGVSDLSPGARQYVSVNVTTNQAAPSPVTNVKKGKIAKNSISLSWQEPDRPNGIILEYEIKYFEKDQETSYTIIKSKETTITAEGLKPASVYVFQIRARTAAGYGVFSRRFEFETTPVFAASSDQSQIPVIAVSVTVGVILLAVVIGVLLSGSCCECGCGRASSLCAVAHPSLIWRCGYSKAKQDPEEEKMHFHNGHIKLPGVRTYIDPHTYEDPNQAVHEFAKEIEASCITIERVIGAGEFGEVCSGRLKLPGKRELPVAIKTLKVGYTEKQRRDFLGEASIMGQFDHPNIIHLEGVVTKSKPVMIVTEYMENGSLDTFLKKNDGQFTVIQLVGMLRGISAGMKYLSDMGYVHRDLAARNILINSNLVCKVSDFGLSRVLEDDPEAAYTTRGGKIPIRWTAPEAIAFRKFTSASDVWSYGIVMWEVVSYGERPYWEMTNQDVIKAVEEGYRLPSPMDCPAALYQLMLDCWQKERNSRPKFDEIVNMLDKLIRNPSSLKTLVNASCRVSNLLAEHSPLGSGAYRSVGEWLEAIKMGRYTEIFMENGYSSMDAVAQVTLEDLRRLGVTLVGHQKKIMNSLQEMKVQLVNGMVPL

[15] = molecular target: Zinc finger and BTB domain-containing protein 7A (Homo sapiens) (UniProt O95365); conditions: SUD4, Compound concentration 1.0 uM
[16] = molecular target: Dual specificity protein kinase CLK1 (Homo sapiens) (UniProt P49759); assay: CLK1 SGC Tm panel (DSF); conditions: Compound concentration 20.0 uM
Dual specificity protein kinase CLK1 (Homo sapiens), sequence (P49759 whole entry, looked up): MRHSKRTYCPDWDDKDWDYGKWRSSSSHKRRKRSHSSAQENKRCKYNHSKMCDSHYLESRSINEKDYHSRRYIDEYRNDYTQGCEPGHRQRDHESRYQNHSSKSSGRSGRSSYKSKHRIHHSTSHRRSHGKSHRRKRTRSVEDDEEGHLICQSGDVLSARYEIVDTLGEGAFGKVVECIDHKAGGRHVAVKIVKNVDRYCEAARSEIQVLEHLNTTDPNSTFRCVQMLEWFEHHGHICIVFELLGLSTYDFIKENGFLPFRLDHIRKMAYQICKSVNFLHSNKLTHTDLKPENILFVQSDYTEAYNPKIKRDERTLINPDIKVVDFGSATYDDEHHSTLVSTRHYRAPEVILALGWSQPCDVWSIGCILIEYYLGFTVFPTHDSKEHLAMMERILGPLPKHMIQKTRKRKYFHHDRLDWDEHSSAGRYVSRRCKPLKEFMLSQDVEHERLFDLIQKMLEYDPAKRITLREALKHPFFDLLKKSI

Zinc finger and BTB domain-containing protein 14 (Homo sapiens), sequence (O43829 whole entry, the tested form may be a part): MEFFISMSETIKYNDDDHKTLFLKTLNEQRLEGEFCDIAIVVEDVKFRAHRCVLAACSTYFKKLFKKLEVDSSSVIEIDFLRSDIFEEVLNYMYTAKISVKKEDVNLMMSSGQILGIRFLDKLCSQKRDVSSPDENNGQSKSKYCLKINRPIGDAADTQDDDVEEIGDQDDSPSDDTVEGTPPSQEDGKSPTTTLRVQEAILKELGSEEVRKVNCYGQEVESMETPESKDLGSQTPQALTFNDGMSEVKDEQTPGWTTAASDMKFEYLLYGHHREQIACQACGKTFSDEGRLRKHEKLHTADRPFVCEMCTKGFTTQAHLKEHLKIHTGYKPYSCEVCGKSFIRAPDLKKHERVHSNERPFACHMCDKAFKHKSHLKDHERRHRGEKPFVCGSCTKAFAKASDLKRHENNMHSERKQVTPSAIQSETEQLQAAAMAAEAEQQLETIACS
Mitogen-activated protein kinase 14 (Homo sapiens), sequence (Q16539 whole entry, the tested form may be a part): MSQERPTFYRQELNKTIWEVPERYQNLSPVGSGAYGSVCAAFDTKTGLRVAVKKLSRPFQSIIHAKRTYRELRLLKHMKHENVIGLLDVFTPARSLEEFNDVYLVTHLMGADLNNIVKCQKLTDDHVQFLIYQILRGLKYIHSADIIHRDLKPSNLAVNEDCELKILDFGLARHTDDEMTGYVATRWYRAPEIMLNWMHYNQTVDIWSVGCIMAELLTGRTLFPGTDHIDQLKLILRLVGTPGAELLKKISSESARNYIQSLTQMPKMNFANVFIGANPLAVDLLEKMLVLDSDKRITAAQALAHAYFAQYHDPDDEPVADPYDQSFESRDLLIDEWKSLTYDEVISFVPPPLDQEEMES

- Tm [1]: 45 °C
- LogFC [2]: 0.0306
- LogFC [3]: 0.0827
- Ki (Adenosine receptor A1; read-out: Ki): 1630 nM
- Ki (Adenosine receptor A1; read-out: pKi (converted)): 1100 nM
- inhibition [4]: 93.1%
- Tm [5]: 50 °C
- LogFC [6]: 0.0189
- inhibition [7]: 50.8%
- LogFC (Myoneurin (Homo sapiens)): -0.135
- Tm [8]: 46 °C
- Tm [9]: 44 °C
- Tm [10]: 47 °C
- Tm [11]: 48 °C
- LogFC [12]: -0.712
- LogFC [13]: -0.111
- Tm [14]: 44 °C
- LogFC [15]: 0.0336
- Tm [16]: 36 °C
Compound: C[C@@H]1CN(c2ncc(Cl)c(Nc3ccc4c(c3)n(CCC(C)(C)O)c(=O)n4C)n2)C[C@H](C)C1(F)F

Reference: ChEMBL document CHEMBL5058646 (2022)
